The target of data set [1] is T1, A2A receptor (Homo sapiens, UniProt P29274). The data set is described as follows: Human IL-2 T cell assay (restoration of IL-2 production in CGS-21680-treated CD3+ T cells). The format is cell-based. Conditions: restoration of IL-2 production, human CD3+ T cells, anti-CD3/CD28 beads, 72 hours. Details: endogenous in cells; host or cells: human CD3+ T cells isolated from venous blood of healthy volunteers. The source says: When T-cells are activated, they produce pro-inflammatory cytokines. When the A2A receptor is activated in T cells, the amount of cytokines produced in response to stimulation of T-cells is reduced.
Venous blood from healthy volunteers, all of whom signed an informed consent approved by the Ethics Committee (FOR-UIC-BV-050-01-01 ICF_HBS_HD Version 5.0), was obtained via ImmuneHealth (Centre Hospitalier Universitaire Tivoli, La Louviere, Belgium). Mononuclear cells were collected by density gradient centrifugation, using SepMate-50 tubes (StemCell Technologies, Grenoble, France) and Lymphoprep (Axis-shield, Oslo, Norway) according to the manufacturer's instructions. CD3+ T cells were isolated by immunomagnetic negative selection, using the EasySep Human T Cell Isolation Kit (StemCell Technologies) as per manufacturer's instructions. CD3+ T cells were stored in heat inactivated foetal bovine serum (hiFBS; Gibco, ThermoFisher Scientific, Merelbeke, Belgium) containing 10% DMSO in liquid nitrogen.
Human purified CD3+ T cells were thawed and washed twice with RPMI1640 medium (with UltraGlutamine; Lonza, Verviers, Belgium) supplemented with 1× non-essential amino acids (Lonza), 2% Pen/Strep (Lonza) and 1 mM Sodium Pyruvate (Gibco) (complete media), containing 10% hiFBS. The cells were suspended either in complete media containing 20% hiFBS or in 100% heat inactivated human serum (hiHS; Sigma-Aldrich, Diegem, Belgium). Cells were activated by adding anti-CD3 and anti-CD28 coated microbeads (Dynabeads human T-activator CD3/CD28; Life Technologies, Paisley, UK), suspended either in complete media containing 20% hiFBS or in 100% hiHS. […] Serial dilutions of the compounds of the present invention were prepared and added to the wells. The cells were placed in a 37° C. humidified tissue culture incubator with 5% CO2 for 72 hours. After 72 hours, supernatants were sampled and IL-2 was quantified using the IL-2 (human) AlphaLISA Biotin-Free Detection Kit (AL333F; Perkin-Elmer, Zaventem, Belgium), according to the manufacturer's instructions.

Data set [2] has as its target T1, A2A receptor. The data set is described as follows: Inhibition of cAMP production in HEK cells. As to conditions: HEK-293 cells with A2A receptor. The format is cell-based. For orientation: Cyclic AMP is a second messenger, typically raised through Gs and lowered through Gi signalling.
Data set [3] is described as follows: in vitro. Conditions: human, Caco-2, pH 7.4.
Procedure: 2 μM dosing solutions for reference compounds and test compounds are prepared by spiking the appropriate volume of intermediate solution to TB with and without 1 μM Zosuquidar. The final concentration of DMSO is no more than 1% (v/v).
Caco-2 cells are grown in MEM supplemented with 2 mM L-glutamine, 10% FBS, 100 U/mL penicillin-G and 100 μg/mL streptomycin. The cells are incubated at 37° C., 5% CO2 and relatively saturated humidity. After reaching 80-90% confluency, the cells are gently detached with 0.05% trypsin-EDTA solution.
TB and dosing solutions were pre-warmed to 37° C. before transport assay. The cell monolayer was washed twice with HBSS containing 10 mM HEPES. For A-B (apical to basolateral) directional transport assay, 75 μL dosing solution is added to the apical well. Fill each basolateral well with 250 μL TB. For B-A (basolateral to apical) directional transport assay, 250 μL of dosing solution is added to the basolateral well after filling each apical well with 75 μL TB. […] The plates are incubated for 120 minutes at 37° C. with 5% CO2 and saturated humidity. The time zero samples are generated by mixing 50 μL initial dosing solution of test compound or reference compound with 100 μL TB and 250 μL quench solution (acetonitrile (ACN) or other appropriate solvent with internal standard(s), based on the bioanalytical method development). At 120 minutes, 150 μL of solution is collected from each A-B receiver well followed by addition of 250 μL quench solution to get A-B receiver sample. And for other samples (A-B donor, B-A donor and receiver), 50 μL of solution is collected from each corresponding well followed by addition of 250 μL quench solution and 100 μL TB. All samples are vortex-mixed and centrifuged at 3220 g for 20 minutes. Subsequently, supernatant is diluted with ultra pure water for LC-MS/MS analysis. The concentrations of test compound in all samples are determined by LC-MS/MS and expressed as peak area ratio of analyte to internal standard.
The concentration of samples is expressed using the peak area ratio of Analyte to Internal Standard (Analyte/IS).
The efflux ratio is calculated using the following equation: Efflux ratio=Papp(A−B)/Papp(B−A) • where Papp (A−B) and Papp (B−A) are the Papp values of compound in Apical to Basolateral and Basolateral to Apical directional transport, respectively.
Setting [4] is: IC50 (nM) (5000 nM CGS-21680 as agonist, 50% HSA), 5000 nM CGS-21680, 50% HSA.
[5] abbreviates: IC50 (nM) (3 nM NECA as agonist, 0.1% BSA), 3 nM NECA as agonist, 0.1% BSA.
Where [6] appears, read: IC50 (nM) (5 nM NECA as agonist, 2% HSA), 5 nM NECA as agonist, 2% HSA.
Setting [7] is: IC50 (nM) (5 μM Adenosine as agonist, 2.0% HSA), 5 μM Adenosine as agonist, 2.0% HSA.

T1 sequence (P29274 whole entry): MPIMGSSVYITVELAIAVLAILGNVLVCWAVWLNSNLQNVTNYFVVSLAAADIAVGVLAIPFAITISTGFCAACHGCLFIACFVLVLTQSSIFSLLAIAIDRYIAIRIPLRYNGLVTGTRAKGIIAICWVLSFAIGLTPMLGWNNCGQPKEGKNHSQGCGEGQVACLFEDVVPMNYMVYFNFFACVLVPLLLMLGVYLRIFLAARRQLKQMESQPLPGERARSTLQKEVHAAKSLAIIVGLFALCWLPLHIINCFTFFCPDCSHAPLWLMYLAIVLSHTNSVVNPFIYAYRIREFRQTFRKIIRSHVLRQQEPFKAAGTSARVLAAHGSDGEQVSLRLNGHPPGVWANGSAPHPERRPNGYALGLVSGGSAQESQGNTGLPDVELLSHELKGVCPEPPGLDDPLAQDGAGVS

Turning to `Nc1nc2c(sc(=O)n2CCN2CCN(c3ccc(OCc4c[nH]nn4)cc3F)CC2)c2nc(-c3ccco3)nn12` [Compound 1, 3-(2-(4-(4-((1H-1,2,3-triazol-4-yl)methoxy)-2-fluorophenyl)-piperazin-1-yl)ethyl)-5-amino-8-(furan-2-yl)thiazolo[5,4-e][1,2,4]triazolo[1,5-c]pyrimidin-2(3H)-one], the half-inhibitory concentration (IC50) – broadly, the concentration at which inhibition is half-maximal – in data set [1] (setting [4]) was 120 nM; in data set [2] (setting [5]), 0.6 nM; in data set [2] (setting [6]) it was 9 nM; in data set [2] (setting [7]) it was 511 nM. The efflux ratio (usually the permeability from basolateral to apical divided by that in the opposite direction, in the common usage) at 120 min, 2 μM in data set [3] is 48.

With `Nc1nc2c(sc(=O)n2CCN2CCN(c3ccc(OCc4n[nH]c(=O)o4)cc3F)CC2)c2nc(-c3ccco3)nn12` [Compound 2, 5-((4-(4-(2-(5-amino-8-(furan-2-yl)-2-oxothiazolo[5,4-e][1,2,4]triazolo[1,5-c]pyrimidin-3(2H)-yl)ethyl)piperazin-1-yl)-3-fluorophenoxy)methyl)-1,3,4-oxadiazol-2(3H)-one], the IC50 in data set [1] (IC50 (nM) (500 nM CGS-21680 as agonist, 10% FBS), 500 nM CGS-21680, 10% FBS) is 0.9 nM; in data set [1] (setting [4]), 18 nM; in data set [2] (setting [5]) it was 0.3 nM; in data set [2] (setting [6]), 17 nM; in data set [2] (setting [7]) it was 708 nM. Further, the efflux ratio at 120 min, 2 μM in data set [3] came to 28.

Consider `Nc1nc2c(sc(=O)n2CCN2CCN(c3ccc(OC4CNC4)cc3)CC2)c2nc(-c3ccco3)nn12` [Compound 108, 5-amino-3-(2-(4-(4-(azetidin-3-yloxy)phenyl)piperazin-1-yl)ethyl)-8-(furan-2-yl)thiazolo[5,4-e][1,2,4]triazolo[1,5-c]pyrimidin-2(3H)-one], for which the IC50 was determined as 0.7 nM in data set [2] (setting [5]) and 172 nM in data set [2] (setting [7]). The efflux ratio at 120 min, 2 μM in data set [3] came out at 191.

Take `Nc1nc2c(sc(=O)n2CCN2CCN(c3cc(O[C@H]4CC[S@@+]([O-])CC4)c(F)cc3F)CC2)c2nc(-c3ccco3)nn12` [Compound 111, 5-amino-3-(2-(4-(2,4-difluoro-5-(((1s,4s)-1-oxidotetrahydro-2H-thiopyran-4-yl)oxy)phenyl)piperazin-1-yl)ethyl)-8-(furan-2-yl)thiazolo[5,4-e][1,2,4]triazolo[1,5-c]pyrimidin-2(3H)-one]: the values for the IC50 in data set [2] (setting [5]) and in data set [2] (setting [7]) were 0.6 nM and 91 nM, respectively. The efflux ratio at 120 min, 2 μM in data set [3] was determined as 583.

As for `Nc1nc2c(sc(=O)n2CCN2CCN(c3cc(O[C@H]4CC[S@+]([O-])CC4)c(F)cc3F)CC2)c2nc(-c3ccco3)nn12` [Compound 112, 5-amino-3-(2-(4-(2,4-difluoro-5-(((1r,4r)-1-oxidotetrahydro-2H-thiopyran-4-yl)oxy)phenyl)piperazin-1-yl)ethyl)-8-(furan-2-yl)thiazolo[5,4-e][1,2,4]triazolo[1,5-c]pyrimidin-2(3H)-one], the values for the half-inhibitory concentration (IC50) in data set [2] (setting [5]) and in data set [2] (setting [7]) were 0.8 nM and 53 nM, respectively. The efflux ratio at 120 min, 2 μM in data set [3] was determined as 605.

Turning to `C[S@+]([O-])CCNC(=O)c1cc(N2CCN(CCn3c(=O)sc4c3nc(N)n3nc(-c5ccco5)nc43)CC2)c(F)cc1F` [Compound 113, (S)-5-(4-(2-(5-amino-8-(furan-2-yl)-2-oxothiazolo[5,4-e][1,2,4]triazolo[1,5-c]pyrimidin-3(2H)-yl)ethyl)piperazin-1-yl)-2,4-difluoro-N-(2-(methylsulfinyl)ethyl)benzamide], the results for the IC50 in data set [2] (setting [5]) and in data set [2] (setting [7]) were 0.4 nM and 37 nM, respectively. Also, the efflux ratio at 120 min, 2 μM in data set [3] turned out to be 374.

`C[S@@+]([O-])CCNC(=O)c1cc(N2CCN(CCn3c(=O)sc4c3nc(N)n3nc(-c5ccco5)nc43)CC2)c(F)cc1F` [Compound 114, (R)-5-(4-(2-(5-amino-8-(furan-2-yl)-2-oxothiazolo[5,4-e][1,2,4]triazolo[1,5-c]pyrimidin-3(2H)-yl)ethyl)piperazin-1-yl)-2,4-difluoro-N-(2-(methylsulfinyl)ethyl)benzamide]: the IC50 in data set [2] (setting [5]) came out at 0.3 nM; in data set [2] (setting [7]), 80 nM. Further, the efflux ratio at 120 min, 2 μM in data set [3] was 403.

On to `CN(CC[S@@+](C)[O-])C(=O)c1cc(N2CCN(CCn3c(=O)sc4c3nc(N)n3nc(-c5ccco5)nc43)CC2)c(F)cc1F` [Compound 116, (R)-5-(4-(2-(5-amino-8-(furan-2-yl)-2-oxothiazolo[5,4-e][1,2,4]triazolo[1,5-c]pyrimidin-3(2H)-yl)ethyl)piperazin-1-yl)-2,4-difluoro-N-methyl-N-(2-(methylsulfinyl)ethyl)benzamide], for which the IC50 in data set [2] (setting [5]) was 1.2 nM; in data set [2] (setting [7]) it was 245 nM. Also, the efflux ratio at 120 min, 2 μM in data set [3] is 421.

Turning to `Nc1nc2c(sc(=O)n2CCN2CCN(c3cc(C(=O)N4CC[S+]([O-])CC4)c(F)cc3F)CC2)c2nc(-c3ccco3)nn12` [Compound 117, 5-amino-3-(2-(4-(2,4-difluoro-5-(1-oxidothiomorpholine-4-carbonyl)phenyl)piperazin-1-yl)ethyl)-8-(furan-2-yl)thiazolo[5,4-e][1,2,4]triazolo[1,5-c]pyrimidin-2(3H)-one], the results for the IC50 in data set [2] (setting [5]) and in data set [2] (setting [7]) were 329 nM and 3160 nM, respectively. For the same compound, in data set [3], the efflux ratio at 120 min, 2 μM came to 12.

As for `C[S@+]([O-])CCNC(=O)c1ccc(N2CCN(CCn3c(=O)sc4c3nc(N)n3nc(-c5ccco5)nc43)CC2)c(F)c1` [Compound 123, (S)-4-(4-(2-(5-amino-8-(furan-2-yl)-2-oxothiazolo[5,4-e][1,2,4]triazolo[1,5-c]pyrimidin-3(2H)-yl)ethyl)piperazin-1-yl)-3-fluoro-N-(2-(methylsulfinyl)ethyl)benzamide], the half-maximal inhibitory concentration (IC50) in data set [2] (setting [5]) stood at 1.5 nM; in data set [2] (setting [7]), 1440 nM. The efflux ratio at 120 min, 2 μM in data set [3] turned out to be 120.

On to `C[S@@+]([O-])CCNC(=O)c1ccc(N2CCN(CCn3c(=O)sc4c3nc(N)n3nc(-c5ccco5)nc43)CC2)c(F)c1` [Compound 124, (R)-4-(4-(2-(5-amino-8-(furan-2-yl)-2-oxothiazolo[5,4-e][1,2,4]triazolo[1,5-c]pyrimidin-3(2H)-yl)ethyl)piperazin-1-yl)-3-fluoro-N-(2-(methylsulfinyl)ethyl)benzamide], for which the IC50 in data set [2] (setting [5]) was determined as 2.3 nM; in data set [2] (setting [7]) it was 2040 nM. Also, the efflux ratio at 120 min, 2 μM in data set [3] was determined as 54.

On to `Nc1nc2c(sc(=O)n2CCN2CCN(c3ccc(C(=O)N4CC[S+]([O-])CC4)cc3F)CC2)c2nc(-c3ccco3)nn12` [Compound 125, 5-amino-3-(2-(4-(2-fluoro-4-(1-oxidothiomorpholine-4-carbonyl)phenyl)piperazin-1-yl)ethyl)-8-(furan-2-yl)thiazolo[5,4-e][1,2,4]triazolo[1,5-c]pyrimidin-2(3H)-one], for which the IC50 in data set [2] (setting [5]) was determined as 2.6 nM; in data set [2] (setting [7]), 3620 nM. For the same compound, in data set [3], the efflux ratio at 120 min, 2 μM worked out at 127.

On to `Nc1nc2c(sc(=O)n2CCN2CCN(c3ccc(N4CC[S+]([O-])CC4)cc3F)CC2)c2nc(-c3ccco3)nn12` [Compound 126, 5-amino-3-(2-(4-(2-fluoro-4-(1-oxidothiomorpholino)phenyl)piperazin-1-yl)ethyl)-8-(furan-2-yl)thiazolo[5,4-e][1,2,4]triazolo[1,5-c]pyrimidin-2(3H)-one], for which the values for the IC50 in data set [2] (setting [5]) and in data set [2] (setting [7]) were 0.6 nM and 78 nM, respectively. Further, the efflux ratio at 120 min, 2 μM in data set [3] amounted to 83.

Regarding `Nc1nc2c(sc(=O)n2CCN2CCN(c3cc(OC[C@H](O)CO)c(F)cc3F)CC2)c2nc(-c3ccco3)nn12` [Compound 128, (R)-5-amino-3-(2-(4-(5-(2,3-dihydroxypropoxy)-2,4-difluorophenyl)piperazin-1-yl)ethyl)-8-(furan-2-yl)thiazolo[5,4-e][1,2,4]triazolo[1,5-c]pyrimidin-2(3H)-one], the IC50 came out at 0.4 nM in data set [2] (setting [5]) and 46 nM in data set [2] (setting [7]). Further, in data set [3], the efflux ratio at 120 min, 2 μM was found to be 419.

Source of the values: US10995101B2, “2-oxo-thiazole derivatives as A2A inhibitors and compounds for use in the treatment of cancers” (iTeos Therapeutics SA, priority 2017, dated 2021).
